Laboratory results: PubChem BioAssay AID248 (DTP/NCI, 2004)
Where “and” joins values, the source holds several entries; their conditions need not be identical. Identical values can stand only once. Toxic doses and inconclusive results are not listed. Cut-off read from the data, not from the text of the source: active = T/C of 150% or more; inactive = T/C below 125%.

System: L1210 leukemia ip in BDF1 mice, survival T/C
Assay: NCI In Vivo Anticancer Drug Screen. Data for tumor model L1210 Leukemia (intraperitoneal) in B6D2F1 (BDF1) mice
Conditions: endpoint: mean survival time, higher = longer survival
In short: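 Read-out is survival time, reported as the treated-group measurement over the vehicle-control measurement.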

[1] = dose: 25.0 mg/kg/injection, schedule: Q01DX009 (ip), vehicle: saline
[2] = dose: 50.0 mg/kg/injection, schedule: Q01DX009 (ip), vehicle: saline
[3] = dose: 100.0 mg/kg/injection, schedule: Q01DX009 (ip), vehicle: saline
[4] = dose: 100.0 mg/kg/injection, schedule: Q01DX009 (ip), vehicle: saline with Tween-80
[5] = dose: 100.0 mg/kg/injection, schedule: Q04DX003 (ip), vehicle: saline with Tween-80
[6] = dose: 200.0 mg/kg/injection, schedule: Q04DX003 (ip), vehicle: saline with Tween-80
[7] = dose: 400.0 mg/kg/injection, schedule: Q01DX009 (ip), vehicle: saline with Tween-80
[8] = dose: 400.0 mg/kg/injection, schedule: Q04DX003 (ip), vehicle: saline with Tween-80
[9] = dose: 25.0 mg/kg/injection, schedule: Q01DX009 (ip), vehicle: saline with Tween-80
[10] = dose: 100.0 mg/kg/injection, schedule: Q01DX009 (ip), vehicle: Klucel (hydroxypropylcellulose) (HPC)
[11] = dose: 100.0 mg/kg/injection, schedule: Q04DX003 (ip), vehicle: Klucel (hydroxypropylcellulose) (HPC)
[12] = dose: 100.0 mg/kg/injection, schedule: Q01DX001 (ip), vehicle: saline
[13] = dose: 200.0 mg/kg/injection, schedule: Q01DX001 (ip), vehicle: saline
[14] = dose: 400.0 mg/kg/injection, schedule: Q01DX001 (ip), vehicle: saline
[15] = dose: 75.0 mg/kg/injection, schedule: Q01DX001 (ip), vehicle: saline
[16] = dose: 150.0 mg/kg/injection, schedule: Q01DX001 (ip), vehicle: saline
[17] = dose: 50.0 mg/kg/injection, schedule: Q01DX009 (ip), vehicle: saline with Tween-80
[18] = dose: 6.25 mg/kg/injection, schedule: Q01DX009 (ip), vehicle: saline
[19] = dose: 12.5 mg/kg/injection, schedule: Q01DX009 (ip), vehicle: saline
[20] = dose: 200.0 mg/kg/injection, schedule: Q01DX009 (ip), vehicle: saline
[21] = dose: 100.0 mg/kg/injection, schedule: Q01DX001 (ip), vehicle: carboxymethylcellulose (CMC)
[22] = dose: 200.0 mg/kg/injection, schedule: Q01DX001 (ip), vehicle: carboxymethylcellulose (CMC)
[23] = dose: 400.0 mg/kg/injection, schedule: Q01DX001 (ip), vehicle: carboxymethylcellulose (CMC)

Measured: T/C

NC(N)=NC(N)=Nc1ccc([As](=O)(O)O)c(O)c1
inactive: [1] 101 % of control | dose: 40.0 mg/kg/injection, schedule: Q01DX009 (ip), vehicle: Klucel (hydroxypropylcellulose) (HPC) 108 % of control | [2] 98 % of control | dose: 80.0 mg/kg/injection, schedule: Q01DX009 (ip), vehicle: Klucel (hydroxypropylcellulose) (HPC) 101 % of control | [3] 108 % of control | dose: 160.0 mg/kg/injection, schedule: Q01DX009 (ip), vehicle: Klucel (hydroxypropylcellulose) (HPC) 104 % of control

Cc1cc(OC(=O)Nc2cccc(Cl)c2C)ccc1Cl
inactive: [4] 99 % of control | [5] 93 % of control | dose: 200.0 mg/kg/injection, schedule: Q01DX009 (ip), vehicle: saline with Tween-80 99 % of control | [6] 91 % of control | [7] 89 % of control | [8] 98 % of control

O=C(C=C(C(F)(F)F)C(F)(F)F)c1cccc([N+](=O)[O-])c1
inactive: dose: 6.25 mg/kg/injection, schedule: Q01DX009 (ip), vehicle: saline with Tween-80 101 % of control | dose: 12.5 mg/kg/injection, schedule: Q01DX009 (ip), vehicle: saline with Tween-80 103 % of control | [9] 97 % of control

CC1(C)CC(=O)c2c(cc(O)c3ccc(=O)oc23)O1
inactive: [10] 96 % of control | [11] 100 % of control | dose: 200.0 mg/kg/injection, schedule: Q01DX009 (ip), vehicle: Klucel (hydroxypropylcellulose) (HPC) 98 % of control | dose: 200.0 mg/kg/injection, schedule: Q04DX003 (ip), vehicle: Klucel (hydroxypropylcellulose) (HPC) 104 % of control | dose: 400.0 mg/kg/injection, schedule: Q01DX009 (ip), vehicle: Klucel (hydroxypropylcellulose) (HPC) 91 % of control | dose: 400.0 mg/kg/injection, schedule: Q04DX003 (ip), vehicle: Klucel (hydroxypropylcellulose) (HPC) 96 % of control

O=C(O)c1ccccc1NC(=S)c1ccccc1
inactive: dose: 25.0 mg/kg/injection, schedule: Q04DX002 (ip), vehicle: other 96 % of control | dose: 50.0 mg/kg/injection, schedule: Q04DX002 (ip), vehicle: other 96 % of control | dose: 100.0 mg/kg/injection, schedule: Q04DX002 (ip), vehicle: other 93 % of control and 104 % of control

Cn1c2c(c(=O)n(C)c1=O)C(=Nc1ccccc1N)C(=O)N2
inactive: [12] 101 % of control | [13] 101 % of control | [14] 90 % of control

C[N+]1(C2CC3CCC2C3=O)CCOCC1 (stereo unspecified)
inactive: [15] 97 % of control | [16] 98 % of control

O=C(CCCCC(=O)N/N=C/c1ccncc1)N/N=C/c1ccncc1
inactive: [9] 94 % of control | [17] 91 % of control | [4] 96 % of control and 89 % of control | [7] 91 % of control

CSc1ccc2c(c1)N(CCCN(C)C)c1ccccc1S2
inactive: dose: 0.78 mg/kg/injection, schedule: Q04DX003 (ip), vehicle: saline 98 % of control and 99 % of control | dose: 1.56 mg/kg/injection, schedule: Q04DX003 (ip), vehicle: saline 103 % of control and 107 % of control | dose: 3.12 mg/kg/injection, schedule: Q01DX009 (ip), vehicle: saline 103 % of control | dose: 3.12 mg/kg/injection, schedule: Q04DX003 (ip), vehicle: saline 98 % of control and 102 % of control | [18] 120 % of control | dose: 6.25 mg/kg/injection, schedule: Q04DX003 (ip), vehicle: saline 101 % of control and 107 % of control | [19] 122 % of control | dose: 12.5 mg/kg/injection, schedule: Q04DX003 (ip), vehicle: saline 104 % of control | dose: 25.0 mg/kg/injection, schedule: Q04DX003 (ip), vehicle: saline 109 % of control

O=C(NC1CCCCC1)Sc1ccc(Cl)cc1
inactive: dose: 25.0 mg/kg/injection, schedule: Q01DX009 (ip), vehicle: Klucel (hydroxypropylcellulose) (HPC) 104 % of control | dose: 25.0 mg/kg/injection, schedule: Q04DX003 (ip), vehicle: Klucel (hydroxypropylcellulose) (HPC) 94 % of control | dose: 50.0 mg/kg/injection, schedule: Q01DX009 (ip), vehicle: Klucel (hydroxypropylcellulose) (HPC) 103 % of control | dose: 50.0 mg/kg/injection, schedule: Q04DX003 (ip), vehicle: Klucel (hydroxypropylcellulose) (HPC) 102 % of control | [10] 98 % of control | [11] 100 % of control and 108 % of control

O=C1c2ccccc2C(=O)c2c3c(cc(NCCNCCO)c21)N(CCO)CCN3
inactive: dose: 25.0 mg/kg/injection, schedule: Q01DX009 (ip), vehicle: DMSO 119 % of control | dose: 50.0 mg/kg/injection, schedule: Q01DX009 (ip), vehicle: DMSO 121 % of control | dose: 200.0 mg/kg/injection, schedule: Q01DX009 (ip), vehicle: DMSO 122 % of control

O=S([O-])c1ccc(Cl)cc1.O=S([O-])c1ccc(Cl)cc1.[Zn+2]
inactive: [15] 101 % of control | [16] 101 % of control | dose: 300.0 mg/kg/injection, schedule: Q01DX001 (ip), vehicle: saline 110 % of control

NCCNC(=O)c1ccccc1
inactive: [3] 94 % of control | [20] 100 % of control

O=C1NC(=O)C2CCCCC12 (stereo unspecified)
inactive: dose: 100.0 mg/kg/injection, schedule: Q04DX002 (ip), vehicle: saline with Tween-80 90 % of control | [5] 96 % of control | dose: 200.0 mg/kg/injection, schedule: Q04DX002 (ip), vehicle: saline with Tween-80 121 % of control | [6] 104 % of control | dose: 400.0 mg/kg/injection, schedule: Q04DX002 (ip), vehicle: saline with Tween-80 107 % of control | [8] 104 % of control

FC(F)(F)C(F)(F)C(F)(F)c1nc2nc(Cl)c(Cl)nc2[nH]1
inactive: [9] 111 % of control | [17] 96 % of control and 100 % of control | [5] 91 % of control | [6] 93 % of control

CCOC(=O)c1ccc(Nc2nc3ccccc3o2)cc1
inactive: [21] 91 % of control | [22] 94 % of control | [23] 93 % of control

O=C(CBr)c1cccc2c1Nc1ccccc1S2
inactive: [15] 98 % of control

CC(=O)C(Cc1ccccc1)(c1ccccc1)c1ccccc1
inactive: dose: 50.0 mg/kg/injection, schedule: Q01DX001 (ip), vehicle: saline 103 % of control | [12] 103 % of control | [13] 97 % of control | [14] 97 % of control

COc1ccc(OC)c(CCO)c1
inactive: dose: 50.0 mg/kg/injection, schedule: Q01DX001 (ip), vehicle: carboxymethylcellulose (CMC) 93 % of control | [21] 98 % of control | [22] 91 % of control | [23] 93 % of control

COc1ccc(/C=C/C(C)=O)cc1OC
inactive: [18] 91 % of control | [19] 100 % of control | [1] 91 % of control | [2] 87 % of control | [3] 88 % of control | [20] 88 % of control

C/C(=N/OC(=O)N(C)C)c1ccc(Cl)c(Cl)c1
inactive: dose: 100.0 mg/kg/injection, schedule: Q01DX001 (ip), vehicle: other 96 % of control | dose: 200.0 mg/kg/injection, schedule: Q01DX001 (ip), vehicle: other 98 % of control
